From US12612372B2, “Oxopyridazinyl-phenyl-carbonohydrazonoyl dicyanide compound and use thereof” (KOREA INSTITUTE OF SCIENCE AND TECHNOLOGY, priority 2020, dated 2026)
Like-named read-outs stand apart in the source and are kept apart here.

Key:
[1] = biological target: T1, tau protein (Homo sapiens, UniProt P10636); test: Tau-BiFC cell model, Forskolin-induced tau protein aggregation; assay type: cell-based; conditions: for Tau BiFC in cells Response (%, @10 μM): 10 μM compound, BiFC fluorescence relative to Forskolin-only group (100% tau protein-aggregated state)
T1 construct: fused on or other part: Split Venus fragments VN173 and VC155, each fused to one copy of tau as BiFC reporter halves
T1 sequence (P10636 2-441 isoform P10636-8 limits assumed): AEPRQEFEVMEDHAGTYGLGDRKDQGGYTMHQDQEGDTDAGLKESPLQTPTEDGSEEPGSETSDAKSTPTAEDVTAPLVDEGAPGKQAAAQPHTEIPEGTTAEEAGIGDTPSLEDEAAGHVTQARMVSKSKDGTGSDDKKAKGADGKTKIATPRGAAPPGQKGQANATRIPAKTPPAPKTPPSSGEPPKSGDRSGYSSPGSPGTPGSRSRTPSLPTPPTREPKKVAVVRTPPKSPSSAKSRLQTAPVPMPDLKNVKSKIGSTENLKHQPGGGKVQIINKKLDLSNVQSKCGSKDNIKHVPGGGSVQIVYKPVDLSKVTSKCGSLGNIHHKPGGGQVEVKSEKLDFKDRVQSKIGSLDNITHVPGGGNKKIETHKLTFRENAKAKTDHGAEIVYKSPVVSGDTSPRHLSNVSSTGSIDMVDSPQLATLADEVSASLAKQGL
Description: (§1) In order to select novel tau protein aggregation—inhibiting substances, tau-BiFC cell model, in which formation of tau oligomers in living cells is easily observed, was used. Tau-BiFC cells were aliquoted into a 384-well plate. […] After 48 hours, nuclei in the cells were stained using Hoechst (at a treatment concentration of 2 μg/mL), and BiFC fluorescence intensity was automatically measured using Operetta (PerkinElmer) to count stained nuclei in each well out of the entire well plate. […] Furthermore, the degree of cytotoxicity induced by the newly synthesized compound was also measured based on the 100% cell viability of the group treated only with Forskolin as a reference, and the cytotoxicity value of each compound was calculated using the equation “(number of stained nuclei in group treated with compound/number of stained nuclei in group treated with Forskolin)×100”.
(§2) After 48 hours, tau protein aggregation reaction and degrees of cytotoxicity were analyzed by observing images of the cells. IC50 and toxicity of the compounds were analyzed by nonlinear regression analysis of Prism software (Graph Pad).

[2] = tested on: Tau-BiFC cells; test: Cell viability (stained nuclei count) in tau-BiFC cells
Description: as §1, §2

[3] = biological target: T2, CYP1A2 (Homo sapiens, UniProt P05177); test: CYP coenzyme activity in human liver microsomes, CYP1A2; assay type: in vitro ADME; conditions: 10 μM compound, human liver microsomes 0.25 mg/mL, substrate phenacetin, 15 minutes
T2 construct: human liver microsomes (0.25 mg/mL); from tissue; host or cells: human liver microsomes
T2 sequence (P05177 1-516): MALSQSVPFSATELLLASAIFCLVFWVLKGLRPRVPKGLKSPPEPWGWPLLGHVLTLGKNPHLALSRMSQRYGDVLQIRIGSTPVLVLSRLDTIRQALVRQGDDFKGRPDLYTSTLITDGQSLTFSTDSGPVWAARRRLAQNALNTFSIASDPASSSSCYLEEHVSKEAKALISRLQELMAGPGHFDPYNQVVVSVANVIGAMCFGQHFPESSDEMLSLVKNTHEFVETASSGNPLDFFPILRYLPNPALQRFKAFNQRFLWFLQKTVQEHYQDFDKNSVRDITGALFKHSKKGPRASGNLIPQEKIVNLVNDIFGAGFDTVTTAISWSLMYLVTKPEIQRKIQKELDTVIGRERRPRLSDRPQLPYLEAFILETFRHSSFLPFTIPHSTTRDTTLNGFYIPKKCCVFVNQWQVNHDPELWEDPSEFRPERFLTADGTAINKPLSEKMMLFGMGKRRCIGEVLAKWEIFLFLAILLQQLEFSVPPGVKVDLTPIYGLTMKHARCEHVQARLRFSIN
Description: (§3) Specifically, human liver microsomes (0.25 mg/mL), a 0.1 M phosphate buffer solution (pH 7.4), a substrate drug cocktail of five types of drug metabolism enzymes (50 μM phenacetin, 10 μM diclofenac, 100 μM S-mephenytoin, 5 μM dextromethorphan, and 2.5 μM midazolam), and the compound at a concentration of 0 μM or 10 μM were mixed and pre-cultured at 37° C. for 5 minutes, and then further cultured at 37° C. for 15 minutes together with an NADPH generation system solution added thereto. Thereafter, the reaction was terminated by adding an acetonitrile solution containing an internal standard material (terfenadine) and centrifuged for 5 minutes (14,000 rpm, 4° C.), and then a supernatant was injected into an LC-MS/MS system for simultaneous analysis of metabolites of the substrate drugs to thereby evaluate the inhibitory effects on drug metabolism.
(§4) Metabolites of each CYP coenzyme indicator drug generated through the reaction were analyzed using the Shimadzu Nexera XR system and TSQ Vantage (Thermo). In an HPLC column, Kinetex C18 (2.1 mm×100 mm, 2.6 μm particle size; Phenomenex, USA) was used, and mobile phases were (A) distilled water containing 0.1% formic acid and (B) acetonitrile containing 0.1% formic acid, and a gradient program shown in Table 3 was applied thereto.
(§5) The generated metabolites were quantified using a multiple reaction monitoring (MRM) quantification mode, and Xcalibur (version 1.6.1) was used for data analysis. In order to express the inhibitory effects of the novel compounds prepared according to the examples of the present invention on CYP coenzyme activity, CYP coenzyme activities (%) with respect to the control group not treated with any compound are shown in Table 4 below.

[4] = biological target: T3, CYP2C9 (Homo sapiens, UniProt P11712); test: CYP coenzyme activity in human liver microsomes, CYP2C9; assay type: in vitro ADME; conditions: 10 μM compound, human liver microsomes 0.25 mg/mL, substrate diclofenac, 15 minutes
T3 construct: human liver microsomes (0.25 mg/mL); from tissue; host or cells: human liver microsomes
T3 sequence (P11712 whole entry): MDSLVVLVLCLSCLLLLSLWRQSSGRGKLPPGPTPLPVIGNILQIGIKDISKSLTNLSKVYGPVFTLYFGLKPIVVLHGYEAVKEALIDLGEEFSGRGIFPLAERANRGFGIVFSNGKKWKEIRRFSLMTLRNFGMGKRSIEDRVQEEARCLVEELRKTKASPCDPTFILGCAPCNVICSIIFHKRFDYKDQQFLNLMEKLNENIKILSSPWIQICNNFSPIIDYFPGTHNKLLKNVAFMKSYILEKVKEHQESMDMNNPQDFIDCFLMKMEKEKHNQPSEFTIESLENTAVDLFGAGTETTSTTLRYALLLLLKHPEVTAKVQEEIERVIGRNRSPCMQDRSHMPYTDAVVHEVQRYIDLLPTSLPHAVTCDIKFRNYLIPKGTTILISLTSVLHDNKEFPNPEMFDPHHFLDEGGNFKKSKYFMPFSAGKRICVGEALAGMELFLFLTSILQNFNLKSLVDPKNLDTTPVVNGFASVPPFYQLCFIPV
Description: as §3, §4, §5

[5] = biological target: T4, CYP2C19 (Homo sapiens, UniProt P33261); test: CYP coenzyme activity in human liver microsomes, CYP2C19; assay type: in vitro ADME; conditions: 10 μM compound, human liver microsomes 0.25 mg/mL, substrate S-mephenytoin, 15 minutes
T4 construct: human liver microsomes (0.25 mg/mL); from tissue; host or cells: human liver microsomes
T4 sequence (P33261 whole entry): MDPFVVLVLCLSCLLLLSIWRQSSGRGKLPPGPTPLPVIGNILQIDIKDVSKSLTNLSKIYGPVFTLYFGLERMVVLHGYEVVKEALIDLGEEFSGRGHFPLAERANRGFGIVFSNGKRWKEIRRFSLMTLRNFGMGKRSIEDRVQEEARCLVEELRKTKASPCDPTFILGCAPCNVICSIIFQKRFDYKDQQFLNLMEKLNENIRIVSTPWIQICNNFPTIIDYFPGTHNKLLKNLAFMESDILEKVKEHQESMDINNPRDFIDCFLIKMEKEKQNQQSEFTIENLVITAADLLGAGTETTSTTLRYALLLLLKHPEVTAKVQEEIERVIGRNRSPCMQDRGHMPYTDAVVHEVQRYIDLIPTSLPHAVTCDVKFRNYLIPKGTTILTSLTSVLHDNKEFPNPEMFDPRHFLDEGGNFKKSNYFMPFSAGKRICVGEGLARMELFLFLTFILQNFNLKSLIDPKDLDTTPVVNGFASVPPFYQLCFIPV
Description: as §3, §4, §5

[6] = biological target: T5, CYP2D6 (Homo sapiens, UniProt P10635); test: CYP coenzyme activity in human liver microsomes, CYP2D6; assay type: in vitro ADME; conditions: 10 μM compound, human liver microsomes 0.25 mg/mL, substrate dextromethorphan, 15 minutes
T5 construct: human liver microsomes (0.25 mg/mL); from tissue; host or cells: human liver microsomes
T5 sequence (P10635 whole entry): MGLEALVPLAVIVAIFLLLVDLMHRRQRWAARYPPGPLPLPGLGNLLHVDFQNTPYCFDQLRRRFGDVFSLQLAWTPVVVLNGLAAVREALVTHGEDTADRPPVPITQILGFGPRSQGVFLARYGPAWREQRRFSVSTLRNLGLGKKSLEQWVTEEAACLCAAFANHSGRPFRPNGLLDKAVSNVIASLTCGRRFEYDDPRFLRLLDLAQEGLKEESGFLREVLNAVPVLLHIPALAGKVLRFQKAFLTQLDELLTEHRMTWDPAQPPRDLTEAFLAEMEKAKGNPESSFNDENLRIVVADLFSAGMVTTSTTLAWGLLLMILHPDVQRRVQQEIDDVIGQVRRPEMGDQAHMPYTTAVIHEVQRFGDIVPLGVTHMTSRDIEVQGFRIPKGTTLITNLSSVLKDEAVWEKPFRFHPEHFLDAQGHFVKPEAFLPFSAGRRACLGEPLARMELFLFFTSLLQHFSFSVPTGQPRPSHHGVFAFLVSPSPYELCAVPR
Description: as §3, §4, §5

[7] = biological target: T6, CYP3A4 (Homo sapiens, UniProt P08684); test: CYP coenzyme activity in human liver microsomes, CYP3A4; assay type: in vitro ADME; conditions: 10 μM compound, human liver microsomes 0.25 mg/mL, substrate midazolam, 15 minutes
T6 construct: human liver microsomes (0.25 mg/mL); from tissue; host or cells: human liver microsomes
T6 sequence (P08684 whole entry): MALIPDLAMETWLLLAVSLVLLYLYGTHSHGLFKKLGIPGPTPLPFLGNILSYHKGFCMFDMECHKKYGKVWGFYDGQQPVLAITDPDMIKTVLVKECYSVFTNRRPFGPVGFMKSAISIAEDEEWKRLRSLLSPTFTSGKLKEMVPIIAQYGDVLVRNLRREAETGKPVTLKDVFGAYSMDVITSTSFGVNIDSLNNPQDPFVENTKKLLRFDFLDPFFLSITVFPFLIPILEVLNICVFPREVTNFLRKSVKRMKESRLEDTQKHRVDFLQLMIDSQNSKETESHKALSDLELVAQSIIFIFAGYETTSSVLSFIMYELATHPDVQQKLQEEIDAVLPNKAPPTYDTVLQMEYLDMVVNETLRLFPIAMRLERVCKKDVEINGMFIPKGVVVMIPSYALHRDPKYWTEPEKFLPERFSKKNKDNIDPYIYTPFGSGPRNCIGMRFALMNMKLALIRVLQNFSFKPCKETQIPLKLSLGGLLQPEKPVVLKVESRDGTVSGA
Description: as §3, §4, §5

[8] = Liver microsome stability, human; assay type: in vitro ADME; conditions: human liver microsomes 0.25 mg/mL, 1 μM compound, 37° C., 30 minutes, NADPH
Description: (§6) The stability of liver microsomes due to the compounds prepared according to Examples 1 to 14 was confirmed. Specifically, four types of liver microsomes (human, dog, rat, and mouse, each 0.25 mg/mL), a 0.1 M phosphate buffer solution (pH 7.4), and each of the compounds at a concentration of 1 μM were mixed and pre-cultured at 37° C. for 5 minutes and further cultured at 37° C. for 30 minutes together with an NADPH generation system solution added thereto. Thereafter, the reaction was terminated by adding an acetonitrile solution containing an internal standard material (chlorpropamide) and centrifuged for 5 minutes (14,000 rpm, 4° C.), and then a supernatant was injected into an LC-MS/MS system for analysis of substrate drugs to thereby evaluate metabolic stability due to 8 types of compounds.
(§7) The amount of the substrate remaining after the reaction was analyzed using the Shimadzu Nexera XR system and TSQ Vantage (Thermo). In an HPLC column, Kinetex XB-C18 (2.1 mm×100 mm, particle size of 2.6 μm; Phenomenex, USA) was used, and mobile phases were (A) distilled water containing 0.1% formic acid and (B) acetonitrile containing 0.1% formic acid. Analyst software (version 1.6.3) and Xcalibur (version 1.6.1) were used for data analysis.

[9] = Liver microsome stability, dog; assay type: in vitro ADME; conditions: dog liver microsomes 0.25 mg/mL, 1 μM compound, 37° C., 30 minutes, NADPH
Description: as §6, §7

[10] = Liver microsome stability, rat; assay type: in vitro ADME; conditions: rat liver microsomes 0.25 mg/mL, 1 μM compound, 37° C., 30 minutes, NADPH
Description: as §6, §7

[11] = Liver microsome stability, mouse; assay type: in vitro ADME; conditions: mouse liver microsomes 0.25 mg/mL, 1 μM compound, 37° C., 30 minutes, NADPH
Description: as §6, §7

[12] = tau-BiFC cells, Forskolin 30 μM, 48 hours, read-out: Tau BiFC in cells IC50
[13] = 10 μM compound, stained nuclei relative to Forskolin-only group (100%), 48 hours

| Compound | Tau BiFC in cells Response (%, @10 μM) ([1]; 48 hours) [%] | IC50 [1, 12] [nM] | Cell viability (%, @10 μM) [2, 13] [%] | other results |
| --- | --- | --- | --- | --- |
| C[C@@H]1CC(=O)NN=C1c1ccc(NN=C(C#N)C#N)cc1 [Levosimendan, reference compound] | 9.58 | 1440 | 73.21 | – |
| COc1ccc(N2N=C(c3ccc(NN=C(C#N)C#N)cc3)C(C)CC2=O)cc1 (stereo not shown) [Example 7, (4-(1-(4-methoxyphenyl)-4-methyl-6-oxo-1,4,5,6-tetrahydropyridazin-3-yl)phenyl)carbonohydrazonoyl dicyanide] | 2.3 | – | 89.3 | IC50 [1]: 940 nM |
| CCN1N=C(c2ccc(NN=C(C#N)C#N)cc2)C(C)CC1=O (stereo not shown) [Example 3, (4-(1-ethyl-4-methyl-6-oxo-1,4,5,6-tetrahydropyridazin-3-yl)phenyl)carbonohydrazonoyl dicyanide] | 0 | – | 68.2 | IC50 [1]: 90 nM; CYP1A2 activity (%) with respect to control group not treated with any compound [3]: >100%; CYP2C9 activity (%) with respect to control group not treated with any compound [4]: 99.9%; CYP2C19 activity (%) with respect to control group not treated with any compound [5]: >100%; CYP2D6 activity (%) with respect to control group not treated with any compound [6]: 93.6%; CYP3A4 activity (%) with respect to control group not treated with any compound [7]: >100%; Human (%) amount remaining after the reaction [8]: 90.3%; Dog (%) amount remaining after the reaction [9]: 91.9%; Rat (%) amount remaining after the reaction [10]: 89.6%; Mouse (%) amount remaining after the reaction [11]: 89.6% |
| Cc1cnn(-c2ccc(NN=C(C#N)C#N)cc2)c(=O)c1 [Comparative Example 7, reference compound] | 19.4 | 4500 | 102.3 | – |
| COCCN1N=C(c2ccc(NN=C(C#N)C#N)cc2)C(C)CC1=O (stereo not shown) [Example 5, (4-(1-(2-methoxyethyl)-4-methyl-6-oxo-1,4,5,6-tetrahydropyridazin-3-yl)phenyl)carbonohydrazonoyl dicyanide] | 15.6 | – | 95.7 | IC50 [1]: 90 nM; CYP1A2 activity (%) with respect to control group not treated with any compound [3]: 70%; CYP2C9 activity (%) with respect to control group not treated with any compound [4]: 71.5%; CYP2C19 activity (%) with respect to control group not treated with any compound [5]: 63.4%; CYP2D6 activity (%) with respect to control group not treated with any compound [6]: 70.4%; CYP3A4 activity (%) with respect to control group not treated with any compound [7]: 74.2%; Human (%) amount remaining after the reaction [8]: 30.9%; Dog (%) amount remaining after the reaction [9]: >100%; Rat (%) amount remaining after the reaction [10]: 90.9%; Mouse (%) amount remaining after the reaction [11]: 94.9% |
| CC1CC(=O)NN=C1c1ccc(NN=C(C#N)C#N)cc1 (stereo not shown) [Comparative Example 4, reference compound] | 45.7 | > 10000 | 120.3 | – |
| Cc1ccc(=O)n(-c2ccc(NN=C(C#N)C#N)cc2)n1 [Comparative Example 6, reference compound] | 46.7 | > 10000 | 114.9 | – |
| N#CC(C#N)=NNc1ccc(-n2ncccc2=O)cc1 [Comparative Example 5, reference compound] | 35.1 | > 10000 | 124.2 | – |
| CC(C)N1N=C(c2ccc(NN=C(C#N)C#N)cc2)CCC1=O [Example 1, (4-(1-isopropyl-6-oxo-1,4,5,6-tetrahydropyridazin-3-yl)phenyl)carbonohydrazonoyl dicyanide] | – | – | 110.1 | CYP1A2 activity (%) with respect to control group not treated with any compound [3]: 79%; CYP2C9 activity (%) with respect to control group not treated with any compound [4]: 70.4%; CYP2C19 activity (%) with respect to control group not treated with any compound [5]: 70.8%; CYP2D6 activity (%) with respect to control group not treated with any compound [6]: 74.6%; CYP3A4 activity (%) with respect to control group not treated with any compound [7]: 81.7%; Human (%) amount remaining after the reaction [8]: 6.4%; Dog (%) amount remaining after the reaction [9]: >100%; Rat (%) amount remaining after the reaction [10]: >100%; Mouse (%) amount remaining after the reaction [11]: >100% |
| N#CC(C#N)=NNc1ccc(-c2ccc(=O)[nH]n2)cc1 [Comparative Example 1, reference compound] | 10.1 | – | 130.3 | IC50 ([1]; Tau BiFC in cells IC50, tau-BiFC cells, Forskolin 30 μM, 48 hours): 16800 nM |
| Cc1cc(=O)[nH]nc1-c1ccc(NN=C(C#N)C#N)cc1 [Comparative Example 2, reference compound] | 1.8 | 3500 | 128.6 | – |
| Cc1cc(-c2ccc(NN=C(C#N)C#N)cc2)n[nH]c1=O [Comparative Example 3, reference compound] | 37.11 | > 10000 | 113.1 | – |
| Cc1ccnn(-c2ccc(NN=C(C#N)C#N)cc2)c1=O [Comparative Example 8, reference compound] | 0 | 2500 | – | Cell viability (%, @10 μM) ([2]; 48 h, 10 μM): 110.1% |
